The text below walks through data of ChEMBL document CHEMBL4393707, “Synthesis and evaluation of new quinazolin-4(3H)-one derivatives as potent antibacterial agents against multidrug resistant Staphylococcus aureus and Mycobacterium tuberculosis” (Eur J Med Chem, 2019).

Values after ≈ are worked out from the molar mass of the structure shown. Bounds are passed on as bounds.

Usually MIC stands for the least concentration at which growth counts as inhibited. Lower therefore signals inhibition by little substance.

Common to all, as to type: functional
The test system of assay [1] is Staphylococcus aureus. The assay is described as follows: Antibacterial activity against Staphylococcus aureus ATCC 29213 incubated for 16 to 18 hrs by broth microdilution assay. Background: In broth dilution the organism is exposed to a series of concentrations in liquid medium.
Assay [2] concerns Klebsiella pneumoniae. The experiment in a line: Antibacterial activity against Klebsiella pneumoniae ATCC BAA-1705 incubated for 16 to 18 hrs by broth microdilution assay.
Assay [3] concerns Mycobacterium tuberculosis. The assay is described as follows: Antitubercular activity against Mycobacterium tuberculosis H37Rv after 7 days by resazurin dye based assay. The settings on record: 168 h. A general note: Resazurin is reduced to fluorescent resorufin, in cell work by metabolically active cells.
Assay [4] deals with Escherichia coli. The experiment in a line: Antibacterial activity against Escherichia coli ATCC 25922 incubated for 16 to 18 hrs by broth microdilution assay.
Assay [5] deals with Pseudomonas aeruginosa. The assay is described as follows: Antibacterial activity against Pseudomonas aeruginosa ATCC 27853 incubated for 16 to 18 hrs by broth microdilution assay.
For assay [6], the system named is Acinetobacter baumannii. The experiment in a line: Antibacterial activity against Acinetobacter baumannii BAA1605 incubated for 16 to 18 hrs by broth microdilution assay.

`CCCCCCCCCC(=O)N[C@@H](Cc1c[nH]c2ccccc12)C(=O)N[C@H](CC(N)=O)C(=O)N[C@@H](CC(=O)O)C(=O)N[C@@H]1C(=O)NCC(=O)N[C@@H](CCCN)C(=O)N[C@@H](CC(=O)O)C(=O)N[C@H](C)C(=O)N[C@@H](CC(=O)O)C(=O)NCC(=O)N[C@H](CO)C(=O)N[C@@H]([C@H](C)CC(=O)O)C(=O)N[C@@H](CC(=O)c2ccccc2N)C(=O)O[C@@H]1C` had an MIC in assay [1] of 0.5 µg/mL (≈ 0.309 µM).
For the compound `N#Cc1ccc(/C=C/c2nc3ccccc3c(=O)n2Cc2ccc(F)cc2)cc1`, the MIC in assay [2], in assay [3], in assay [4], in assay [5], in assay [1] and in assay [6] was over 64 µg/mL throughout.
On to `C#CCNc1ccc2c(=O)n(-c3ccccc3)c(/C=C/c3ccc(C#N)cc3)nc2c1`, for which the MIC in assay [2], in assay [3], in assay [4], in assay [5], in assay [1] and in assay [6] was over 64 µg/mL each time.
`N#Cc1ccc(/C=C/c2nc3cc(-n4cc(-c5ccccc5)nn4)ccc3c(=O)n2-c2ccccc2)cc1`: the MIC in assay [2], in assay [3], in assay [4], in assay [5], in assay [1] and in assay [6] was over 64 µg/mL throughout.
As to `COc1cc(-n2cc(COc3ccc4nc(C)n(-c5ccccc5)c(=O)c4c3)nn2)cc(OC)c1OC`, the MIC in assay [2], in assay [3], in assay [4], in assay [5], in assay [1] and in assay [6] was over 64 µg/mL throughout.
For `Cc1cc(C)cc(OCc2cn(-c3ccc4c(=O)n(-c5cccc(Cl)c5)c(C)nc4c3)nn2)c1`, the MIC in assay [2], in assay [3], in assay [4], in assay [5], in assay [1] and in assay [6] was over 64 µg/mL throughout.
With `Cc1ccc(C)c(-n2c(/C=C/c3ccc(C#N)cc3)nc3ncccc3c2=O)c1`, the MIC in assay [2], in assay [3], in assay [4], in assay [5], in assay [1] and in assay [6] was over 64 µg/mL throughout.
Take `N#Cc1ccc(/C=C/c2nc3ncccc3c(=O)n2-c2ccc3c(c2)OCCO3)cc1`: the MIC in assay [2], in assay [3], in assay [4], in assay [5], in assay [1] and in assay [6] was over 64 µg/mL in each case.
`N#Cc1ccc(/C=C/c2nc3cc(-c4ccccc4)ccc3c(=O)n2-c2cccc(Cl)c2)cc1`: the MIC in assay [2], in assay [3], in assay [4], in assay [5], in assay [1] and in assay [6] was over 64 µg/mL in each case.
Regarding `CCC(C)(C)c1ccc(OCc2cn(-c3ccc4c(=O)n(-c5cccc(Cl)c5)c(C)nc4c3)nn2)cc1`, the MIC in assay [2], in assay [3], in assay [4], in assay [5], in assay [1] and in assay [6] was over 64 µg/mL each time.
With GENTAMICIN, in assay [1], it took 0.25 µg/mL to inhibit growth (MIC).
With `N#Cc1ccc(/C=C/c2nc3ccccc3c(=O)n2-c2cccc3ccccc23)cc1`, the MIC in assay [2], in assay [3], in assay [4], in assay [5], in assay [1] and in assay [6] was over 64 µg/mL in each case.
`Cc1nc2cc(-n3cc(COc4ccccc4)nn3)ccc2c(=O)n1-c1ccccc1`: the MIC in assay [2], in assay [3], in assay [4], in assay [5], in assay [1] and in assay [6] was over 64 µg/mL in each case.
The compound `CN(C)c1ccc(O)c2c1C[C@H]1C[C@H]3[C@H](N(C)C)C(O)=C(C(N)=O)C(=O)[C@@]3(O)C(O)=C1C2=O` [MINOCYCLINE] showed an MIC in assay [1] of 0.125 µg/mL (≈ 0.273 µM).
For `Cc1nc2ccc(OCc3cn(Cc4ccc(Br)cc4)nn3)cc2c(=O)n1-c1ccccc1`, the MIC in assay [2] was over 64 µg/mL; in assay [3], over 64 µg/mL; in assay [4], over 64 µg/mL; in assay [5] it was over 64 µg/mL; in assay [1] it was 64 µg/mL (≈ 127 µM); in assay [6], over 64 µg/mL.
For `N#Cc1ccc(/C=C/c2nc3ncccc3c(=O)n2-c2cccc(C#N)c2)cc1`, the MIC in assay [2], in assay [3], in assay [4], in assay [5], in assay [1] and in assay [6] was over 64 µg/mL each time.
As for `C#Cc1cccc(-n2c(/C=C/c3ccc(C#N)cc3)nc3ncccc3c2=O)c1`, the MIC in assay [2], in assay [3], in assay [4], in assay [5], in assay [1] and in assay [6] was over 64 µg/mL in each case.
Regarding `CO[C@H]1/C=C/O[C@@]2(C)Oc3c(C)c(O)c4c(O)c(c(/C=N/N5CCN(C)CC5)c(O)c4c3C2=O)NC(=O)/C(C)=C\C=C\[C@H](C)[C@H](O)[C@@H](C)[C@@H](O)[C@@H](C)[C@H](OC(C)=O)[C@@H]1C` [RIFAMPIN], the MIC came out at 0.03 µg/mL (≈ 0.0365 µM) in assay [3] and 0.015 µg/mL (≈ 0.0182 µM) in assay [1].
For the compound `Cc1nc2ccc(OCc3cn(-c4cccc(Cl)c4)nn3)cc2c(=O)n1Cc1ccccc1`, the MIC in assay [2], in assay [3], in assay [4], in assay [5], in assay [1] and in assay [6] was over 64 µg/mL each time.
In the case of `Cc1nc2cc(-n3cc(COc4ccc5nc(C)n(-c6ccccc6)c(=O)c5c4)nn3)ccc2c(=O)n1-c1ccccc1`, the MIC in assay [2], in assay [3], in assay [4], in assay [5], in assay [1] and in assay [6] was over 64 µg/mL throughout.
`COC(=O)Cn1c(/C=C/c2ccc(C#N)cc2)nc2ccc(OCc3cn(-c4ccc(F)c(Cl)c4)nn3)cc2c1=O`: the MIC in assay [2], in assay [3], in assay [4], in assay [5], in assay [1] and in assay [6] was over 64 µg/mL throughout.
For the compound `Cc1cc(-n2cc(CNc3ccc4c(=O)n(-c5ccccc5)c(C)nc4c3)nn2)ccc1[N+](=O)[O-]`, the MIC in assay [2], in assay [3], in assay [4], in assay [5], in assay [1] and in assay [6] was over 64 µg/mL throughout.
Take `CC(C)(C)c1ccc(-n2c(/C=C/c3ccc(C#N)cc3)nc3ccccc3c2=O)cc1`: the MIC in assay [2], in assay [3], in assay [4], in assay [5], in assay [1] and in assay [6] was over 64 µg/mL each time.
On to `COc1ccc(-c2ccc3c(=O)n(-c4cccc(Cl)c4)c(C)nc3c2)cc1`, for which the MIC in assay [2], in assay [3], in assay [4], in assay [5], in assay [1] and in assay [6] was over 64 µg/mL throughout.
For `Cc1ccc(-c2cn(-c3ccc4c(=O)n(-c5ccccc5)c(C)nc4c3)nn2)cc1`, the MIC in assay [2], in assay [3], in assay [4], in assay [5], in assay [1] and in assay [6] was over 64 µg/mL in each case.
For the compound `N#Cc1ccc(/C=C/c2nc3cccc(F)c3c(=O)n2-c2cccc(C#N)c2)cc1`, the MIC in assay [2] is over 64 µg/mL; in assay [3] it was over 64 µg/mL; in assay [4], over 64 µg/mL; in assay [5], over 64 µg/mL; in assay [1] it was 32 µg/mL (≈ 81.6 µM); in assay [6] it was over 64 µg/mL.
On to `Cc1cccc(-n2c(/C=C/c3ccc(C#N)cc3)nc3ncccc3c2=O)c1C`, for which the MIC in assay [2], in assay [3], in assay [4], in assay [5], in assay [1] and in assay [6] was over 64 µg/mL each time.
With `Cc1nc2cc(-n3cc(-c4ccc(Br)cc4)nn3)ccc2c(=O)n1-c1ccccc1`, the MIC is over 64 µg/mL in assay [2]; 64 µg/mL (≈ 140 µM) in assay [3]; over 64 µg/mL in assay [4]; over 64 µg/mL in assay [5]; 64 µg/mL (≈ 140 µM) in assay [1]; over 64 µg/mL in assay [6].
With `C#CCOc1ccc2nc(/C=C/c3ccc(C#N)cc3)n(CC(=O)OC)c(=O)c2c1`, the MIC in assay [2], in assay [3], in assay [4], in assay [5], in assay [1] and in assay [6] was over 64 µg/mL each time.
Consider `Cc1nc2ccc(OCc3cn(-c4ccc(Cl)cc4)nn3)cc2c(=O)n1Cc1ccccc1`, for which the MIC in assay [2], in assay [3], in assay [4], in assay [5], in assay [1] and in assay [6] was over 64 µg/mL each time.
Turning to `Cc1cc(-n2cc(CNc3ccc4c(=O)n(-c5ccccc5)c(C)nc4c3)nn2)cc(C)c1C`, the MIC in assay [2], in assay [3], in assay [4], in assay [5], in assay [1] and in assay [6] was over 64 µg/mL in each case.
In assay [1], `CC(C)(O/N=C(\C(=O)N[C@@H]1C(=O)N2C(C(=O)[O-])=C(C[n+]3ccccc3)CS[C@H]12)c1csc(N)n1)C(=O)O` [CEFTAZIDIME] returned an MIC of 16 µg/mL (≈ 29.3 µM).
In assay [3], `NNC(=O)c1ccncc1` [ISONIAZID] yielded an MIC of 0.03 µg/mL (≈ 0.219 µM).
